Here are results for 31 compounds from the NIST ThermoML archive (doi:10.1016/j.jct.2012.09.017).

The data set can be described thus: activity coefficient (dimensionless); of the first substance listed, at infinite dilution; xn = mol fraction of the nth substance listed. To be noted: 101 kPa, Liquid, Chromatography, x1 = 0.

± gives the expanded uncertainty stated by the source.

Take `CC1CCCCC1` [methylcyclohexane] + CCCC[N+]1(C)CCCC1.O=C1O[B-]2(OC1=O)OC(=O)C(=O)O2: the activity coefficient by setting is: (333.15 K) 30 ± 1.6; (343.15 K) 26.5 ± 1.4; (353.15 K) 24 ± 1.2; (363.15 K) 21.6 ± 1.1; (373.15 K) 19.9 ± 1.
In the case of `CCC1CCCCC1` [ethylcyclohexane] + CCCC[N+]1(C)CCCC1.N#C[B-](C#N)(C#N)C#N, the activity coefficient runs as follows: (318.15 K) 17.6 ± 0.9; (323.15 K) 17 ± 0.9; (333.15 K) 15.8 ± 0.8; (343.15 K) 14.8 ± 0.8; (353.15 K) 13.9 ± 0.7.
As to `CC(C)=O` [acetone] + CCCC[N+]1(C)CCCC1.O=C1O[B-]2(OC1=O)OC(=O)C(=O)O2, the activity coefficient (333.15 K) is 0.762 ± 0.037; the activity coefficient (343.15 K) was 0.767 ± 0.037; the activity coefficient (353.15 K) worked out at 0.773 ± 0.037; the activity coefficient (363.15 K) was found to be 0.778 ± 0.037; the activity coefficient (373.15 K) amounted to 0.784 ± 0.037.
Take `COC(=O)OC` [dimethyl carbonate] + CCCC[N+]1(C)CCCC1.N#C[B-](C#N)(C#N)C#N: the activity coefficient reads like this: (318.15 K) 0.522 ± 0.031; (323.15 K) 0.529 ± 0.031; (333.15 K) 0.543 ± 0.031; (343.15 K) 0.556 ± 0.032; (353.15 K) 0.57 ± 0.032.
The corresponding values for `CC#N` [acetonitrile] + CCCC[N+]1(C)CCCC1.N#C[B-](C#N)(C#N)C#N are 0.425 ± 0.029, 0.426 ± 0.029, 0.427 ± 0.029, 0.429 ± 0.029 and 0.43 ± 0.029.
As for `CCC(C)=O` [butanone] + CCCC[N+]1(C)CCCC1.O=C1O[B-]2(OC1=O)OC(=O)C(=O)O2, the activity coefficient by setting is: (333.15 K) 1.13 ± 0.05; (343.15 K) 1.12 ± 0.05; (353.15 K) 1.11 ± 0.05; (363.15 K) 1.11 ± 0.05; (373.15 K) 1.1 ± 0.05.
On to `CCC(C)=O` [butanone] + CCCC[N+]1(C)CCCC1.N#C[B-](C#N)(C#N)C#N, for which the activity coefficient reads like this: (318.15 K) 0.546 ± 0.031; (323.15 K) 0.551 ± 0.031; (333.15 K) 0.564 ± 0.032; (343.15 K) 0.575 ± 0.032; (353.15 K) 0.588 ± 0.032.
As to `CC#N` [acetonitrile] + CCCC[N+]1(C)CCCC1.O=C1O[B-]2(OC1=O)OC(=O)C(=O)O2, the activity coefficient (333.15 K) worked out at 0.509 ± 0.031; the activity coefficient (343.15 K) turned out to be 0.512 ± 0.031; the activity coefficient (353.15 K) was 0.514 ± 0.031; the activity coefficient (363.15 K) was determined as 0.516 ± 0.031; the activity coefficient (373.15 K) was 0.517 ± 0.031.
As for `CCCCCCCC` [octane] + CCCC[N+]1(C)CCCC1.N#C[B-](C#N)(C#N)C#N, the activity coefficient reads like this: (318.15 K) 33.2 ± 1.7; (323.15 K) 31.8 ± 1.6; (333.15 K) 29.4 ± 1.5; (343.15 K) 27.4 ± 1.4; (353.15 K) 25.6 ± 1.3.
The corresponding values for `COC(C)=O` [methyl ethanoate] + CCCC[N+]1(C)CCCC1.N#C[B-](C#N)(C#N)C#N are 0.671 ± 0.034, 0.678 ± 0.034, 0.693 ± 0.035, 0.708 ± 0.035 and 0.724 ± 0.036.
Turning to `c1ccsc1` [thiophene] + CCCC[N+]1(C)CCCC1.O=C1O[B-]2(OC1=O)OC(=O)C(=O)O2, the activity coefficient is 1.13 ± 0.05 (333.15 K); 1.12 ± 0.05 (343.15 K); 1.12 ± 0.05 (353.15 K); 1.13 ± 0.05 (363.15 K); 1.13 ± 0.05 (373.15 K).
For the compound `ClC(Cl)Cl` [trichloromethane] + CCCC[N+]1(C)CCCC1.N#C[B-](C#N)(C#N)C#N, the activity coefficient is, setting by setting: (318.15 K) 0.609 ± 0.033; (323.15 K) 0.623 ± 0.033; (333.15 K) 0.654 ± 0.034; (343.15 K) 0.683 ± 0.034; (353.15 K) 0.711 ± 0.035.
With `CCCCCCC` [heptane] + CCCC[N+]1(C)CCCC1.O=C1O[B-]2(OC1=O)OC(=O)C(=O)O2, the activity coefficient came to 62.9 ± 3.3 (333.15 K); 55.4 ± 2.9 (343.15 K); 49.5 ± 2.6 (353.15 K); 44.7 ± 2.3 (363.15 K); 40.8 ± 2.1 (373.15 K).
Turning to `CC(C)O` [propan-2-ol] + CCCC[N+]1(C)CCCC1.N#C[B-](C#N)(C#N)C#N, the activity coefficient (333.15 K) is 1.35 ± 0.06, the activity coefficient (343.15 K) is 1.25 ± 0.06 and the activity coefficient (353.15 K) was 1.16 ± 0.05.
With `ClCCl` [dichloromethane] + CCCC[N+]1(C)CCCC1.N#C[B-](C#N)(C#N)C#N, the activity coefficient runs as follows: (318.15 K) 0.536 ± 0.031; (323.15 K) 0.542 ± 0.031; (333.15 K) 0.59 ± 0.03; (343.15 K) 0.574 ± 0.032; (353.15 K) 0.59 ± 0.032.
Consider `COC(C)(C)C` [2-methoxy-2-methylpropane] + CCCC[N+]1(C)CCCC1.O=C1O[B-]2(OC1=O)OC(=O)C(=O)O2, for which the activity coefficient was determined as 6.34 ± 0.33 (333.15 K); 6.06 ± 0.31 (343.15 K); 5.87 ± 0.3 (353.15 K); 5.7 ± 0.29 (363.15 K); 5.57 ± 0.29 (373.15 K).
On to `CCOC(C)=O` [ethyl acetate] + CCCC[N+]1(C)CCCC1.O=C1O[B-]2(OC1=O)OC(=O)C(=O)O2, for which the activity coefficient reads like this: (333.15 K) 1.75 ± 0.09; (343.15 K) 1.74 ± 0.09; (353.15 K) 1.74 ± 0.09; (363.15 K) 1.73 ± 0.09; (373.15 K) 1.73 ± 0.09.
On to `FC(F)(F)C(Cl)Br` (stereo not given) [1-bromo-1-chloro-2,2,2-trifluoroethane] + CCCC[N+]1(C)CCCC1.N#C[B-](C#N)(C#N)C#N, for which the activity coefficient (318.15 K) was found to be 0.842 ± 0.039; the activity coefficient (323.15 K) worked out at 0.869 ± 0.04; the activity coefficient (333.15 K) is 0.923 ± 0.041; the activity coefficient (343.15 K) turned out to be 0.977 ± 0.043; the activity coefficient (353.15 K) is 1.03 ± 0.05.
On to `C1CCCCC1` [cyclohexane] + CCCC[N+]1(C)CCCC1.O=C1O[B-]2(OC1=O)OC(=O)C(=O)O2, for which the activity coefficient (333.15 K) is 20.2 ± 1; the activity coefficient (343.15 K) is 17.9 ± 0.9; the activity coefficient (353.15 K) amounted to 16.2 ± 0.8; the activity coefficient (363.15 K) stood at 14.7 ± 0.8; the activity coefficient (373.15 K) was 13.6 ± 0.7.
`CC(C)OC(C)C` [diisopropyl ether] + CCCC[N+]1(C)CCCC1.N#C[B-](C#N)(C#N)C#N: the activity coefficient by setting is: (318.15 K) 5.87 ± 0.3; (323.15 K) 5.88 ± 0.3; (333.15 K) 5.86 ± 0.3; (343.15 K) 5.85 ± 0.3; (353.15 K) 5.84 ± 0.3.
As to `C1CCOC1` [tetrahydrofuran] + CCCC[N+]1(C)CCCC1.O=C1O[B-]2(OC1=O)OC(=O)C(=O)O2, the activity coefficient is, setting by setting: (333.15 K) 1.13 ± 0.05; (343.15 K) 1.14 ± 0.05; (353.15 K) 1.15 ± 0.05; (363.15 K) 1.15 ± 0.05; (373.15 K) 1.16 ± 0.05.
In the case of `COC(C)=O` [methyl ethanoate] + CCCC[N+]1(C)CCCC1.O=C1O[B-]2(OC1=O)OC(=O)C(=O)O2, the activity coefficient runs as follows: (333.15 K) 1.03 ± 0.05; (343.15 K) 1.04 ± 0.05; (353.15 K) 1.06 ± 0.05; (363.15 K) 1.08 ± 0.05; (373.15 K) 1.09 ± 0.05.
Taken in the same sequence, the figures for `ClCCl` [dichloromethane] + CCCC[N+]1(C)CCCC1.O=C1O[B-]2(OC1=O)OC(=O)C(=O)O2 were 0.745 ± 0.036, 0.76 ± 0.037, 0.774 ± 0.037, 0.789 ± 0.037 and 0.803 ± 0.038.
Consider `CCCO` [propan-1-ol] + CCCC[N+]1(C)CCCC1.N#C[B-](C#N)(C#N)C#N, for which the activity coefficient is 1.53 ± 0.07 (318.15 K); 1.46 ± 0.07 (323.15 K); 1.34 ± 0.06 (333.15 K); 1.24 ± 0.06 (343.15 K); 1.15 ± 0.05 (353.15 K).
The corresponding values for `C=CCCCCCC` [oct-1-ene] + CCCC[N+]1(C)CCCC1.N#C[B-](C#N)(C#N)C#N are 15.8 ± 0.8, 15.4 ± 0.8, 14.7 ± 0.8, 14 ± 0.7 and 13.4 ± 0.7.
Regarding `CCC1CCCCC1` [ethylcyclohexane] + CCCC[N+]1(C)CCCC1.O=C1O[B-]2(OC1=O)OC(=O)C(=O)O2, the activity coefficient stood at 41.8 ± 2.2 (333.15 K); 36.9 ± 1.9 (343.15 K); 33 ± 1.7 (353.15 K); 29.7 ± 1.5 (363.15 K); 27 ± 1.4 (373.15 K).
As for `Cc1ccccc1` [toluene] + CCCC[N+]1(C)CCCC1.N#C[B-](C#N)(C#N)C#N, the activity coefficient reads like this: (318.15 K) 1.13 ± 0.05; (323.15 K) 1.15 ± 0.05; (333.15 K) 1.17 ± 0.05; (343.15 K) 1.19 ± 0.05; (353.15 K) 1.22 ± 0.06.
Taken in the same sequence, the figures for `c1ccsc1` [thiophene] + CCCC[N+]1(C)CCCC1.N#C[B-](C#N)(C#N)C#N were 0.681 ± 0.034, 0.688 ± 0.035, 0.703 ± 0.035, 0.718 ± 0.035 and 0.733 ± 0.036.
As for `CC(C)O` [propan-2-ol] + CCCC[N+]1(C)CCCC1.O=C1O[B-]2(OC1=O)OC(=O)C(=O)O2, the activity coefficient is 1.98 ± 0.1 (363.15 K) and 1.83 ± 0.09 (373.15 K).
On to `CCCCCCC` [heptane] + CCCC[N+]1(C)CCCC1.N#C[B-](C#N)(C#N)C#N, for which the activity coefficient by setting is: (318.15 K) 23.2 ± 1.2; (323.15 K) 22.4 ± 1.2; (333.15 K) 20.9 ± 1.1; (343.15 K) 19.7 ± 1; (353.15 K) 18.5 ± 1.
The corresponding values for `CCc1ccccc1` [ethylbenzene] + CCCC[N+]1(C)CCCC1.N#C[B-](C#N)(C#N)C#N are 1.65 ± 0.08, 1.66 ± 0.08, 1.68 ± 0.08, 1.71 ± 0.09 and 1.73 ± 0.09.
